For experiment [1], the system named is OEOBI Oenothera biennis (evening primrose). Description: Postemergence foliar-applied herbicidal mixtures, weeds common to row crops. The format is in vivo. The following applies: Cmpd 2 3.75 g ae/ha. An excerpt:
(§1) Evaluation of Postemergence Foliar-Applied Herbicidal Mixtures for Control of Weeds Common to Row Crops such as Corn and Soybeans. Seeds or nutlets of the desired test plant species were planted in a soil matrix prepared by mixing a loam or sandy loam soil (e.g., 28.6 percent silt, 18.8 percent clay, and 52.6 percent sand, with a pH of about 5.8 and an organic matter content of about 1.8 percent) and calcareous grit in an 80 to 20 ratio. The soil matrix was contained in plastic pots with a surface area of 84.6 cm^2 and a volume of 560 cubic centimeters (cm^3). When required to ensure good germination and healthy plants, a fungicide treatment and/or other chemical or physical treatment was applied. The plants were grown for 7-31 d in a greenhouse with an approximate 15 h photoperiod which was maintained at about 23-29° C. during the day and 22-28° C. during the night. Nutrients (Peters Excel® 15-5-15 5-Ca 2-Mg) and water were added on a regular basis and supplemental lighting was provided with overhead metal halide 1000-Watt lamps as necessary. The plants were employed for testing when they reached the first, second, or third true leaf stage.
(§2) Treatment requirements were calculated based upon the rates being tested, the concentration of active ingredient or acid equivalent in the formulation, and a 12 mL application volume at a rate of 187 L/ha.
(§3) Treatments consisted of the potassium (K^+) salt of 4-amino-3-chloro-6-(4-chloro-2-fluoro-3-methoxyphenyl)-pyridine-2-carboxylic acid (Cmpd 4) formulated as a soluble liquid (SL), the propargyl ester of 4-amino-3-chloro-6-(4-chloro-2-fluoro-3-methoxyphenyl)-pyridine-2-carboxylic acid (Cmpd 2) as technical grade material, or the benzyl ester of 4-amino-3-chloro-6-(4-chloro-2-fluoro-3-methoxyphenyl)-pyridine-2-carboxylic acid (Cmpd 3) as technical grade material and quizalofop-p-ethyl (Assure® II) alone and in combination. Forms of compound of formula (I) and quizalofop-P-ethyl were applied on an acid equivalent basis.
(§4) For treatments comprised of formulated compounds, measured amounts of compounds were placed individually in 25 mL glass vials and diluted in a volume of 1.5% (v/v) Agri-Dex® crop oil concentrated to obtain 6× stock solutions. […] Application solutions were prepared by adding an appropriate amount of each stock solution (typically 2 mL) and diluted to the appropriate final concentrations with the addition of an appropriate amount of an aqueous mixture of 1.5% (v/v) crop oil concentrate and water so that the final spray solutions contained 1.25+/−0.05% (v/v) crop oil concentrate.
(§5) For treatments comprised of formulated and technical compounds, weighed amounts of the technical materials were placed individually in 25 mL glass vials and dissolved in a volume of 97:3 v/v acetone/DMSO to obtain 6× stock solutions, and measured amounts of the formulated compounds were placed individually in 25 mL glass vials and diluted in a volume of 1.5% (v/v) crop oil concentrate or water to obtain 6× stock solutions. […] Application solutions were prepared by adding an appropriate amount of each stock solution (e.g., 2 mL) and diluted to the appropriate final concentrations with the addition of an appropriate amount of an aqueous mixture of 1.5% (v/v) crop oil concentrate and water so that the final spray solutions contained 1.25% (v/v) crop oil concentrate. When required, additional water and/or 97:3 v/v acetone/DMSO can be added to individual application solutions so that the final acetone and DMSO concentrations of the application solutions being compared are 16.2% and 0.5%, respectively.
(§6) All stock solutions and applications solutions were visually inspected for compound compatibility prior to application. Compound requirements are based upon a 12 mL application volume at a rate of 187 liters per hectare (L/ha). […]

In experiment [2] the test system is SORHA Sorghum halepense (L.) Pers. (Johnsongrass). The description is as above. In kind it is in vivo.
Description: as §1, §2, §3, §4, §5, §6

The values that follow come from patent publication US20140213446A1, “HERBICIDAL COMPOSITIONS AND METHODS USING COMBINATIONS OF 4-AMINO-3-CHLORO-6-(4-CHLORO-2-FLUORO-3-METHOXYPHENYL)PYRIDINE-2-CARBOXYLIC ACID OR A DERIVATIVE THEREOF AND AN ARYLOXYPHENOXY PROPIONATE ACCASE INHIBITOR HERBICIDE” (DOW AGROSCIENCES LLC, priority 2013, published 2014).

As to `C#CCOC(=O)c1nc(-c2ccc(Cl)c(OC)c2F)cc(N)c1Cl` [Cmpd 2, propargyl ester of 4-amino-3-chloro-6-(4-chloro-2-fluoro-3-methoxyphenyl)-pyridine-2-carboxylic acid], the “Percent (%) injury rated visually 14 DAA Obs” value in experiment [1] is 65%; in experiment [2] (Cmpd 2 3.75 g ae/ha) it was 0%; in experiment [2] (Cmpd 2 7.5 g ae/ha), 0%; in experiment [2] (Cmpd 2 15 g ae/ha) it was 10%.
